Assay results: publication PMC7041903, “Isothermal Titration Calorimetry Enables Rapid Characterization of Enzyme Kinetics and Inhibition for the Human Soluble Epoxide Hydrolase” (Analytical Chemistry, 2019)

The molecules below were run against T1, human soluble epoxide hydrolase (hsEH) (Homo sapiens, UniProt P34913) (assay: single-injection ITC enzyme kinetics (KM)).
T1 construct: gene EPHX2; C-terminal domain (CTD)
T1 sequence (P34913 230-555 limits assumed): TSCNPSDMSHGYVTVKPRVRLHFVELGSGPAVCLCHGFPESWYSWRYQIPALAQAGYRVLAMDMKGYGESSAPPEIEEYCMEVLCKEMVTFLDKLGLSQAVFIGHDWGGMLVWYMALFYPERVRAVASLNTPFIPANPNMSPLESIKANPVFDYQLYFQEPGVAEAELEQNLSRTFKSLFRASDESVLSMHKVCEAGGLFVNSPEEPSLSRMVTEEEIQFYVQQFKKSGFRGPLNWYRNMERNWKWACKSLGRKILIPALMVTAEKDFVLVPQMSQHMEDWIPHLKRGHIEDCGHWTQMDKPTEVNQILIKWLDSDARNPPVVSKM
Format: biochemical

Compound	Km [µM]
CCCCC/C=C\C/C=C\CC1OC1C/C=C\CCCC(=O)O (stereo not shown) [8(9)EET]	23.1 ± 2.39
CCCCC/C=C\CC1OC1C/C=C\C/C=C\CCCC(=O)O (stereo not shown) [11(12)EET]	1.74 ± 0.2
CCCCCC1OC1C/C=C\C/C=C\C/C=C\CCCC(=O)O (stereo not shown) [14(15)EET]	12.9 ± 1.94

Second part, the molecule after the results:

Km [µM]	Compound
9.74 ± 0.13	CC/C=C\C/C=C\C/C=C\CC1OC1C/C=C\CCCC(=O)O (stereo not shown) [8(9)EpETE]
26.4 ± 4.05	CCC1OC1C/C=C\C/C=C\C/C=C\C/C=C\CCCC(=O)O (stereo not shown) [17(18)EpETE]
26.6 ± 1.21	CCC1OC1C/C=C\C/C=C\C/C=C\C/C=C\C/C=C\CCC(=O)O (stereo not shown) [19(20)EpDPE]

These molecules were tested against T1, human soluble epoxide hydrolase (hsEH) (assay: single-injection ITC enzyme kinetics (KM; saturation not reached)).
Format: biochemical

Km [µM]	Compound
46.6 ± 11	CCCCC/C=C\C/C=C\C/C=C\CC1OC1CCCC(=O)O (stereo not shown) [5(6)EET]
